Tests used:
Type in all cases: cell-based
[1] = target: T1, SMARCA4 (Homo sapiens, UniProt P51532); test: SMARCA4 Western blot MV4-11 degradation; conditions: for Dmax: MV4-11, MV4-11 cells, read-out: SMARCA4 MSD MV411 degradation 24 h: average Dmax %; for Dmax / DC50: 24 h; for DC50 / SMARCA4 MSD MV411 degradation 24 h: average Dmax %: MV4-11 cells; for DC50: read-out: SMARCA4 MSD MV411 degradation 24 h: Mean external-Abs DC50
T1 construct: SMARCA2 and SMARCA4 protein degradation in MV4-11 cells; endogenous in cells; host or cells: MV4-11
T1 sequence (P51532 whole entry): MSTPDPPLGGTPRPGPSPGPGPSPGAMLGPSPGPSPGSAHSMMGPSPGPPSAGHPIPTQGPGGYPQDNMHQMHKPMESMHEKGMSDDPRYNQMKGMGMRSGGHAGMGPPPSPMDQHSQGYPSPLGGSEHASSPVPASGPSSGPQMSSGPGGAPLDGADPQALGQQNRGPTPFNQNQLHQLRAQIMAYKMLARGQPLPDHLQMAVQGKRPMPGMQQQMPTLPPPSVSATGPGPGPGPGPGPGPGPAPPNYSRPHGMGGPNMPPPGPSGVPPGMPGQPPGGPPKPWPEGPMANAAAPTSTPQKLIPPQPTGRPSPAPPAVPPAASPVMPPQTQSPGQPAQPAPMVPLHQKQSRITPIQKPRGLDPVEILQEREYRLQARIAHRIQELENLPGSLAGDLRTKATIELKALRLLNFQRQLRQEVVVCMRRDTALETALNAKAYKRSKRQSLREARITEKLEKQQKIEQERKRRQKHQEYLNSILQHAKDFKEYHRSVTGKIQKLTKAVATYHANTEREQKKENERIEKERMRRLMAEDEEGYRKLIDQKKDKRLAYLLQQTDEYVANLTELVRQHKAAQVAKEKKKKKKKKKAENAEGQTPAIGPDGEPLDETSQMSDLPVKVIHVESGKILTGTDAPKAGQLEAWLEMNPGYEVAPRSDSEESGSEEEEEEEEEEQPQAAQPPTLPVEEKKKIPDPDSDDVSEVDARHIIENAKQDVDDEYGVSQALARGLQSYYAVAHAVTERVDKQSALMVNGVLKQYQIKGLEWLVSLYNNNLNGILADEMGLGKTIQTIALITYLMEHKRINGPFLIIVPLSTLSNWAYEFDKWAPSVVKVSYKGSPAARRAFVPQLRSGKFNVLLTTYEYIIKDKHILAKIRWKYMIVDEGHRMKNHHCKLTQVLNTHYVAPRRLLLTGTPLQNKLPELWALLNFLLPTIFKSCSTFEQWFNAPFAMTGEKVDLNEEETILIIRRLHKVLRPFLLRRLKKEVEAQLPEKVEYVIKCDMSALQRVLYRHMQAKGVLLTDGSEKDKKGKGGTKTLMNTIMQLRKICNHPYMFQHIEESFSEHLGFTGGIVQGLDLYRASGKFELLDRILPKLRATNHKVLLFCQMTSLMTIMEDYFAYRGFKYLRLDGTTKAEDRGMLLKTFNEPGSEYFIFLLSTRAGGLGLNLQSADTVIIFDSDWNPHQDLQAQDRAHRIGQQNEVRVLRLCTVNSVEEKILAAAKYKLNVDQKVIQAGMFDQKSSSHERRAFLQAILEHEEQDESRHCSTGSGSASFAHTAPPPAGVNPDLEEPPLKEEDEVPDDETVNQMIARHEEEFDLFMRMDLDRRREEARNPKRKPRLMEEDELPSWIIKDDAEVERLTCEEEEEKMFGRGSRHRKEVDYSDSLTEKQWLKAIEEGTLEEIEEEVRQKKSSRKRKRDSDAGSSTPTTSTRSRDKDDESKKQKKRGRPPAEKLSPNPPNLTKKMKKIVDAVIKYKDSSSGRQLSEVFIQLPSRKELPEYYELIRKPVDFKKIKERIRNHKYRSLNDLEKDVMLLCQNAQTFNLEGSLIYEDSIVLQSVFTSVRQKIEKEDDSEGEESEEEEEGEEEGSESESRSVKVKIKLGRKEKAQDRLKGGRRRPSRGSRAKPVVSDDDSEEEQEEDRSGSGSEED
Method: (§1) Example 54. SMARCA2 and SMARCA 4 Western Blot MV4-11 Degradation
(§2) Cells were seeded into 6-well plates (MV4-11: 4×10^6 cells/well/1 ml) and 1 ml of 2× compound solution was added into the well to make the final concentration and the plates were mixed well and incubated for 24 hours (No cytotoxicity was observed). The cell were collected with media and spun at 3000 rpm for 5 minutes. The supernatant was aspirated and the well and the cells were washed with cold PBS once and combined for centrifugation again; the supernatant aspirated again. 200 ul pre-chilled RIPA lysis buffer (Boston BioProducts BP-115D) with protease/phosphatase inhibitor (Roche 05892791001/Roche 04906837001) was directly added into the tube to lyze the cells for 20 minutes on ice. The cell lysate were collected into EP tubes and spun at 13000 rpm for 20 minutes and 72 ul supernatant was transferred to a fresh EP tube containing 18 ul of 5× loading buffer (Beyotime Bio P0015) to make the loading samples. The samples were heated to 100° C. for 10 minutes and cooled to RT and microcentrifuged. 20 ul of samples were loaded onto SDS-PAGE gel (Novex, WG1402BOX) and the gel was run at 80 V for 20 minutes and 120 V for 1.5 hours. The samples were electrotransfer to a NC membrane using wet-transfer method with 250 mA for 2.5 hours. The membrane was blocked with LICOR blocking buffer (LI-COR, 927-50000) for 1 hour. The membrane was washed three times with TBST (CST #9997S), 5 minutes each. Incubation was performed with primary antibody prepared in blocking buffer with 0.1% Tween-20 (Solarbio, P8220) at 4° C. overnight (Anti-SMARCA2/BRM antibody (ab15597) 1:500; Anti-BRG1 antibody [EPR3912] (ab108318) 1:1000; Rabbit anti-Baf180 antibody [EPR15860] (Abcam, ab196022) 1:1000; mouse anti-beta-Actin (8H10D10) (CST #3700) 1:10000). The membrane was washed three times with TBST, 5 minutes each. Incubation with secondary antibody was performed for 1 hour at RT (anti-rabbit IgG (Licor, 926-32211) 1:5000; anti-mouse IgG (LI-COR, 926-68070) 1:5000). The membrane was washed three times with TBST, 5 minutes each and lastly the LiCOR was read.
(§3) The letter codes for SMARCA degradation potency (DC50) include: A (<100 nM), B (100-500 nM), C (501-1000 nM), and D (>1000 nM). The letter codes for the percentage of SMARCA degradation after 24 hours (Dmax %) include: A (>90% degradation), B (>70-90% degradation), C (50-70% degradation), and D (<50% degradation).

[2] = target: T2, SMARCA2 (Homo sapiens, UniProt P51531); test: MSD SMARCA2 degradation in A549 cell line; parameters: endogenous in cells; conditions: for Dmax: A549, A549 cells; for Dmax / DC50: 24 h; for DC50 / SMARCA2 MSD A549 degradation 24 h: Average Dmax %: A549 cells; for DC50: read-out: SMARCA2 MSD A549 degradation 24 h: Average external-Abs DC50
T2 sequence (P51531 whole entry): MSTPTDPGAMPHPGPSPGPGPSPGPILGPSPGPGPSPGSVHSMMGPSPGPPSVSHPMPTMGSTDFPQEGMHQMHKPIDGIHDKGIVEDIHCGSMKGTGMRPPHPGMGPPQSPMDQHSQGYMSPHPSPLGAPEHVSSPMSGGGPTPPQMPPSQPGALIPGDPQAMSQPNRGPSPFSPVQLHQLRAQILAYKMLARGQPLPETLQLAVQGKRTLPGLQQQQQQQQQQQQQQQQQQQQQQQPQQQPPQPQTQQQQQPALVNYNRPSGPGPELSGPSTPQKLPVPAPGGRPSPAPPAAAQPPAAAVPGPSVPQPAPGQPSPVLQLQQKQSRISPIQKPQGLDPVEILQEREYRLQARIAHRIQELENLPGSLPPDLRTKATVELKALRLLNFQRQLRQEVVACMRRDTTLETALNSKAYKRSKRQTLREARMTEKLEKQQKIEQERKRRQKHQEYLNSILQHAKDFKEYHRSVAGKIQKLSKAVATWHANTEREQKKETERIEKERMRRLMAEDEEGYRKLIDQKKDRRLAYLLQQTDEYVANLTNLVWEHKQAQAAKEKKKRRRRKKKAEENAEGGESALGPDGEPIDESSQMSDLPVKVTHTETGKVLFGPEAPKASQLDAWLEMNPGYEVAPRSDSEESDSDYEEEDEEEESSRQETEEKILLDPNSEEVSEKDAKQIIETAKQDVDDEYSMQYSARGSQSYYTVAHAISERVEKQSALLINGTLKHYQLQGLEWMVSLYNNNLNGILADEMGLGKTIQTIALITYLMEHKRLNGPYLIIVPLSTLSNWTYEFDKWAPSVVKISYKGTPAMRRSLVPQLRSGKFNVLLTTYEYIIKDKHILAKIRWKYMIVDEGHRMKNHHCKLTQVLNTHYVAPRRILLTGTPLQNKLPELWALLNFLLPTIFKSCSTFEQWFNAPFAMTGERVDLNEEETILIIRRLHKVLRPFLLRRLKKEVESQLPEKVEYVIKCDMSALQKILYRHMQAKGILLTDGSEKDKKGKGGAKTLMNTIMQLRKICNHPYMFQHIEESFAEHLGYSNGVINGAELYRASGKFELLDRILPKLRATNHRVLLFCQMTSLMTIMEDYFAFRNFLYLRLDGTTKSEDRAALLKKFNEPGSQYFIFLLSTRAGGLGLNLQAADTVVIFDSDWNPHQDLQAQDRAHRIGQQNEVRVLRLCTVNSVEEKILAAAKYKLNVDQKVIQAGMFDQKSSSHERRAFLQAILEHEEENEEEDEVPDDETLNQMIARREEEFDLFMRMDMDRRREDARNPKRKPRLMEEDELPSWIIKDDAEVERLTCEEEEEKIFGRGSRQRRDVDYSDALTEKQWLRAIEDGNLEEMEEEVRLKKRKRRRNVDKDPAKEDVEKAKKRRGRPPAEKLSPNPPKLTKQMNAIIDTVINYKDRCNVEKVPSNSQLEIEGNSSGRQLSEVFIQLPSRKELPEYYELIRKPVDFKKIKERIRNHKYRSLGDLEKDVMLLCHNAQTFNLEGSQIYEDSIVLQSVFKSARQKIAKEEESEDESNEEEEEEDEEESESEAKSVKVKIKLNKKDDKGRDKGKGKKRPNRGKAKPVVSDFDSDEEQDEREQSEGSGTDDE
Method: Example 53. MSD SMARCA2 Degradation in A549 Cell Line
Cells were seeded into 96-well plates (A549 cells: 2×10^4 cells/well/100 ul media) abd incubated overnight. The next day, 200 nl compound were added into the intermediate plate with Echo (Labcyte 550) from source plate containing a 3-fold serial dilution from top concentration of 1 mM. The culture medium was changed with 80 ul of fresh medium and 80 ul of 2× compound solution was added into the well to make a final concentration of 1000 nM, 333.3 nM, 111.1 nM, 37.04 nM, 12.35 nM, 4.115 nM, 1.372 nM, 0.457 nM, 0.152 nM and 0 nM (DMSO). The wells were mixed and then incubated for 24 hours. The media was aspirated from the cultures and 60 ul pre-chilled PIPA lysis buffer (Boston BioProducts BP-115D) with protease/phosphatase inhibitor (Roche 05892791001/Roche 04906837001) was added into the well to lyze the cells for 20 minutes at 4° C. The MSD plate (L15XA) was coated with 40 ul cell lysate and incubated at 4° C. overnight. The next day, the plate was washed three times with TBST (CST #9997S), 150 ul/well. The MSD plates was blocked with 150 ul blocking buffer per well and shaked for 1 hr at R^†, 600 rpm. The blocking buffer was 3% Blocker A (MSD, R93BA-4) in TBST. The MSD plate was washed three times with 150 ul/well of TBST and 25 ul/well of detection antibody (Rabbit anti-SMARCA2/BRM antibody, 100 μg/ml, ab223735) was added at final concentration of 1 ug/mi diluted in 1% o Blocking buffer and shaken for 1 hour at R^†, 600 rpm. The MSD plate was washed three times with 150 ul/well of TBST and 25 ul/well of SULFO-TAG anti-rabbit antibody (MSD, R32AB-1) was added at final concentration of 1 μg/ml diluted in […] Blocking buffer and shaken for 1 hour at R^†, 600 rpm. The MSD plate was washed three times with 150 ul/well of TBST and 150 ul/well of 2×MSD reading buffer diluted from 4× (MSD, R92TC-2) with water was added. Lastly, the MSD instrument was read.
as §3, with “SMARCA2” for “SMARCA”, “% o)” for “%)”, “(>90% o” for “(>90%”, “(>70-90% o” for “(>70-90%”, “(50-70% o” for “(50-70%”

[3] = target: T2, SMARCA2; test: SMARCA2 Western blot MV4-11 degradation; parameters: SMARCA2 and SMARCA4 protein degradation in MV4-11 cells; endogenous in cells; host or cells: MV4-11; conditions: for Dmax: MV4-11, MV4-11 cells, read-out: SMARCA2 MSD MV411 degradation 24 h: average Dmax %; for Dmax / DC50: 24 h; for DC50 / SMARCA2 MSD MV411 degradation 24 h: average Dmax %: MV4-11 cells; for DC50: read-out: SMARCA2 MSD MV411 degradation 24 h: Mean external-Abs DC50
Method: as §1, §2, §3

Compound	Dmax [1] [%]	DC50 [1] [nM]	Dmax [2] [%]	DC50 [2] [nM]	Dmax [3] [%]	DC50 [3] [nM]	SMARCA4 MSD MV411 degradation 24 h: average Dmax % [1]	SMARCA2 MSD A549 degradation 24 h: Average Dmax % [2]	SMARCA2 MSD MV411 degradation 24 h: average Dmax % [3]
Cc1ncsc1-c1ccc(CNC(=O)[C@@H]2C[C@@H](O)CN2C(=O)C(c2cc(N3CCC(N4CCC(c5cnc(N6C7CCC6CN(c6cc(-c8ccccc8O)nnc6N)C7)nc5)CC4)CC3)no2)C(C)C)cc1 (mixture of isomers) [I-47, (2S,4R)-1-(2-(3-(4-(2-(3-(3-amino-6-(2-hydroxyphenyl)pyridazin-4-yl)-3,8-diazabicyclo[3.2.1]octan-8-yl)pyrimidin-5-yl)-[1,4′-bipiperidin]-1′-yl)isoxazol-5-yl)-3-methylbutanoyl)-4-hydroxy-N-(4-(4-methylthiazol-5-yl)benzyl)pyrrolidine-2-carboxamide]	> 90	< 100	> 90	< 100	> 90	< 100	–	–	–
Cc1ncsc1-c1ccc([C@H](C)NC(=O)[C@@H]2C[C@@H](O)CN2C(=O)[C@@H](NC(=O)[C@H]2CC3(C2)C[C@H](N2CCC(c4cnc(N5C6CCC5CN(c5cc(-c7ccccc7O)nnc5N)C6)nc4)CC2)C3)C(C)(C)C)cc1 (single isomer, unassigned) [I-1]	70 to 90	< 100	> 90	100 to 500	70 to 90	< 100	–	–	–
Cc1ncsc1-c1ccc([C@H](C)NC(=O)[C@@H]2C[C@@H](O)CN2C(=O)[C@@H](NC(=O)[C@H]2CC3(C2)C[C@H](N2CCC(c4cnc(N5C6CCC5CN(c5cc(-c7ccccc7O)nnc5N)C6)nc4)CC2)C3)C(C)(C)C)cc1 (single isomer, unassigned) [I-2]	–	< 100	–	< 100	–	< 100	B (B (>70-90% degradation))	A (A (>90% o degradation))	A (A (>90% degradation))
Cc1ncsc1-c1ccc(C2(NC(=O)[C@@H]3C[C@@H](O)CN3C(=O)[C@@H](NC(=O)[C@H]3CC4(C3)C[C@H](N3CCC(c5cnc(N6C7CCC6CN(c6cc(-c8ccccc8O)nnc6N)C7)nc5)CC3)C4)C(C)(C)C)CC2)cc1 (single isomer, unassigned) [I-3]	70 to 90	< 100	> 90	< 100	> 90	< 100	–	–	–
Cc1ncsc1-c1ccc(C2(NC(=O)[C@@H]3C[C@@H](O)CN3C(=O)[C@@H](NC(=O)[C@H]3CC4(C3)C[C@H](N3CCC(c5cnc(N6C7CCC6CN(c6cc(-c8ccccc8O)nnc6N)C7)nc5)CC3)C4)C(C)(C)C)CC2)cc1 (single isomer, unassigned) [I-4]	–	< 100	–	100 to 500	–	< 100	A (A (>90% degradation))	A (A (>90% o degradation))	A (A (>90% degradation))
Cc1ncsc1-c1ccc([C@H](C)NC(=O)[C@@H]2C[C@@H](O)CN2C(=O)[C@@H](NC(=O)[C@H]2CC3(C2)C[C@H](N2CCC(c4ccc(N5C6CCC5CN(c5cc(-c7ccccc7O)nnc5N)C6)cc4)CC2)C3)C(C)(C)C)cn1 (single isomer, unassigned) [I-5]	–	> 1000	< 50	> 1000	< 50	100 to 500	D (D (<50% degradation))	–	–
Cc1ncsc1-c1ccc([C@H](C)NC(=O)[C@@H]2C[C@@H](O)CN2C(=O)[C@@H](NC(=O)[C@H]2CC3(C2)C[C@H](N2CCC(c4ccc(N5C6CCC5CN(c5cc(-c7ccccc7O)nnc5N)C6)cc4)CC2)C3)C(C)(C)C)cn1 (single isomer, unassigned) [I-6]	–	> 1000	–	> 1000	–	501 to 1000	A (A (>90% degradation))	B (B (>70-90% o degradation))	C (C (50-70% degradation))
Cc1ncsc1-c1ccc(CNC(=O)[C@@H]2C[C@@H](O)CN2C(=O)[C@@H](NC(=O)[C@H]2CC3(C2)C[C@H](N2CCN(c4cnc(N5C6CCC5CN(c5cc(-c7ccccc7O)nnc5N)C6)nc4)CC2)C3)C(C)(C)C)cc1 (single isomer, unassigned) [I-8]	< 50	> 1000	70 to 90	< 100	70 to 90	< 100	–	–	–
Cc1ncsc1-c1ccc(CNC(=O)[C@@H]2C[C@@H](O)CN2C(=O)[C@@H](NC(=O)[C@H]2CC3(C2)C[C@H](N2CCN(c4cnc(N5C6CCC5CN(c5cc(-c7ccccc7O)nnc5N)C6)nc4)CC2)C3)C(C)(C)C)cc1 (single isomer, unassigned) [I-9]	–	> 1000	–	100 to 500	–	< 100	D (D (<50% degradation))	B (B (>70-90% o degradation))	B (B (>70-90% degradation))
Cc1ncsc1-c1ccc(CNC(=O)[C@@H]2C[C@H](O)CN2C(=O)[C@@H](NC(=O)[C@H]2CC3(C2)C[C@H](N2CCC(c4cnc(N5C6CCC5CN(c5cc(-c7ccccc7O)nnc5N)C6)nc4)CC2)C3)C(C)(C)C)cc1 (stereo partly drawn) [I-80, (2S,4S)-1-((2S)-2-(6-(4-(2-(3-(3-amino-6-(2-hydroxyphenyl)pyridazin-4-yl)-3,8-diazabicyc-lo[3.2.1]octan-8-yl)pyrimidin-5-yl)piperidin-1-yl)spiro[3.3]heptane-2-carboxamido)-3,3-dimethylbutanoyl)-4-hydroxy-N-(4-(4-methylthiazol-5-yl)benzyl)pyrrolidine-2-carbox-amide]	–	> 1000	–	> 1000	–	–	–	–	–

From patent US12606568B2, “SMARCA degraders and uses thereof” (Kymera Therapeutics, Inc., priority 2020, dated 2026)
